The source of these data is ChEMBL document CHEMBL4411294, “Synthesis and biological evaluation of cyanoaziridine phosphine oxides and phosphonates with antiproliferative activity” (Eur J Med Chem, 2019).

pIC50: −log10 of the molar value. Some results are limits rather than exact numbers.

A word on the pIC50: it is the negative decadic logarithm of the IC50, by convention in mol/L.

The subject of assay [1] is A549. Nature of the assay: Cytotoxicity against human A549 cells assessed as reduction in cell viability after 48 hrs by CCK8 assay. The class given is functional, cell-based. Conditions: A549, 48 h. Background: Tetrazolium dyes change colour on reduction, which living cells bring about.
The subject of assay [2] is HEK293. Nature of the assay: Cytotoxicity against human HEK293 cells assessed as reduction in cell viability after 48 hrs by CCK8 assay. In kind it is cell-based. Conditions: HEK293, 48 h.
The subject of assay [3] is MRC5. Nature of the assay: Cytotoxicity against human MRC5 cells assessed as reduction in cell viability after 48 hrs by CCK8 assay. The class given is cell-based. Conditions: MRC5, 48 h.

For `C[C@@]1(C#N)N[C@H]1P(=O)(c1ccccc1)c1ccccc1` (relative stereo), the pIC50 was 5.70 in assay [1], under 4.30 in assay [2] and under 4.30 in assay [3].
Take `CC[C@]1(C#N)[C@H](P(=O)(c2ccccc2)c2ccccc2)N1S(=O)(=O)c1ccc(C)cc1` (relative stereo): the pIC50 in assay [1] was 5.64; in assay [2], 4.36; in assay [3], under 4.30.
For `Cc1ccc(S(=O)(=O)N2[C@@H](P(=O)(OC(C)C)OC(C)C)[C@]2(C)C#N)cc1` (relative stereo), the pIC50 is 5.47 in assay [1], under 4.30 in assay [2] and under 4.30 in assay [3].
In the case of `CC[C@@]1(C#N)N[C@H]1P(=O)(c1ccccc1)c1ccccc1` (relative stereo), the pIC50 was 5.48 in assay [1], under 4.30 in assay [2] and under 4.30 in assay [3].
Consider `C[C@@]1(C#N)N[C@H]1P(=O)(O)O` (relative stereo), for which the pIC50 is 5.07 in assay [1], under 4.30 in assay [2] and under 4.30 in assay [3].
With `CCOP(=O)(OCC)[C@@H]1N(S(=O)(=O)c2ccc(C)cc2)[C@]1(C#N)CC` (relative stereo), the figures for the pIC50 in assay [1], in assay [2] and in assay [3] were 5.31, under 4.30 and under 4.30, respectively.
Regarding `CCOP(=O)(OCC)[C@@H]1N(S(=O)(=O)c2ccc(C)cc2)[C@@]1(C)C#N` (relative stereo), the pIC50 in assay [2] and in assay [3] was under 4.30 throughout.
Regarding `C[C@]1(C#N)[C@H](P(=O)(c2ccccc2)c2ccccc2)N1C(=O)OCc1ccccc1` (relative stereo), the figures for the pIC50 in assay [1], in assay [2] and in assay [3] were 5.09, 4.52 and under 4.30, respectively.
For `Cc1ccc(S(=O)(=O)N2[C@@H](P(=O)(c3ccccc3)c3ccccc3)[C@]2(C)C#N)cc1` (relative stereo), in that order: 5.51, under 4.30 and under 4.30.
As to `COc1cccc2c1C(=O)c1c(O)c3c(c(O)c1C2=O)C[C@@](O)(C(=O)CO)C[C@@H]3O[C@H]1C[C@H](N)[C@H](O)[C@H](C)O1` [DOXORUBICIN], the pIC50 in assay [3] was under 4.30.
